Read-outs that look alike come from different tables or passages of the source.
How the values were obtained:
human GLP-1 receptor [1] = target: T1, human GLP-1 receptor (Homo sapiens, UniProt P43220); experiment: In vitro potency: CRE luciferase reporter gene assay in BHK cells expressing the human GLP-1 receptor; assay type: cell-based; conditions: whole cell reporter gene assay, BHK cells, human GLP-1 receptor; average of at least two replicates; read-out: EC50
T1 construct: expressed in transfected cells; host or cells: BHK cells (parent line BHKTS13), clone FCW467-12A; membrane preparation
T1 sequence (P43220 24-463): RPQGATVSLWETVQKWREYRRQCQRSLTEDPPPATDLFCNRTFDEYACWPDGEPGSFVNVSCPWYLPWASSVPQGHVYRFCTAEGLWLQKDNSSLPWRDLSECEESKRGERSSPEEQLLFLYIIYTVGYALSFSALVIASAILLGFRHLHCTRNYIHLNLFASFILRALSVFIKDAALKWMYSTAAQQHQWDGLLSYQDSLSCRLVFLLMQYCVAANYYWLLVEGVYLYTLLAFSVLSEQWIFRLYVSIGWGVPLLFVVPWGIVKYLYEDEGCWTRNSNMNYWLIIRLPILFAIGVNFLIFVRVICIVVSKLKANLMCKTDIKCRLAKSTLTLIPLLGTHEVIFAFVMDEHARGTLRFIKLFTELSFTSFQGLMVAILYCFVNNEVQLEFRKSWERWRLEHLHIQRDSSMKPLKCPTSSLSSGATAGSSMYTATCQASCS
Summary of the method: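 Whole-cell assay in stably transfected BHK cells carrying CRE-driven firefly luciferase, 5×10^3 cells/well, in assay buffer with 2% ovalbumin and 0.2% Pluronic F-68. Compound working solutions were 0.2 μM.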

human GLP-1 receptor [2] = target: T1, human GLP-1 receptor; experiment: GLP-1 receptor binding: competitive binding assay (125I-GLP-1, SPA) on isolated membranes at low and high HSA
[3] = Pharmacokinetic study in minipigs (i.v.); conditions: male, Göttingen, minipig, in vivo, iv, 2 nmol/kg

In the case of `CC[C@H](C)[C@H](NC(=O)[C@H](Cc1ccccc1)NC(=O)[C@H](CCC(=O)O)NC(=O)[C@H](CCCNC(=N)N)NC(=O)[C@H](C)NC(=O)[C@H](C)NC(=O)[C@H](CCC(N)=O)NC(=O)[C@H](CCC(=O)O)NC(=O)[C@H](CCC(=O)O)NC(=O)[C@H](CC(C)C)NC(=O)[C@H](Cc1ccc(O)cc1)NC(=O)[C@H](CO)NC(=O)[C@H](CO)NC(=O)[C@@H](NC(=O)[C@H](CC(=O)O)NC(=O)[C@H](CO)NC(=O)[C@@H](NC(=O)[C@H](Cc1ccccc1)NC(=O)[C@@H](NC(=O)CNC(=O)[C@H](CCC(=O)O)NC(=O)C(C)(C)NC(=O)[C@@H](N)Cc1c[nH]cn1)[C@@H](C)O)[C@@H](C)O)C(C)C)C(=O)N[C@@H](C)C(=O)N[C@@H](Cc1c[nH]c2ccccc12)C(=O)N[C@@H](CC(C)C)C(=O)N[C@H](C(=O)N[C@@H](CCCNC(=N)N)C(=O)NCC(=O)N[C@@H](CCCNC(=N)N)C(=O)N[C@@H](CCCCNC(=O)COCCOCCNC(=O)COCCOCCNC(=O)COCCOCCNC(=O)COCCOCCNC(=O)CN(CCCNC(=O)COCCOCCNC(=O)COCCOCCNC(=O)CC[C@H](NC(=O)[C@H]1CC[C@H](CNC(=O)CCCCCCCCCCCCCCCCCCC(=O)O)CC1)C(=O)O)CCCNC(=O)COCCOCCNC(=O)COCCOCCNC(=O)CC[C@H](NC(=O)[C@H]1CC[C@H](CNC(=O)CCCCCCCCCCCCCCCCCCC(=O)O)CC1)C(=O)O)C(=O)O)C(C)C` [Example 12], the EC50 (human GLP-1 receptor [1]) is reported as 20 pM, the IC50 (human GLP-1 receptor [2]; Low HSA IC50, low HSA (max. 0.001% final assay concentration)) is reported as 510 pM and the IC50 (human GLP-1 receptor [2]; high HSA (2.0% final assay concentration), read-out: High HSA IC50) is reported as 25000 pM. For the same compound, the half-life [3] was 137 h.
